Laboratory results from the supplement of paper PMC11061612.

Experiments:
Experiment in all cases: combination Emax (second highest fraction inhibited in the dose matrix, 72 h); higher = more inhibition; extreme values may be limits of the assay
[1] = tested on: 22RV1 (Prostate Carcinoma)
In short: (§1)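 Bliss excess equals the observed combination effect minus the expected value EA + EB − EA·EB, where EA and EB are the effects of each agent alone. Combination Emax is the second-highest inhibition within the matrix. Inhibition was scaled from CellTiter-Glo 2.0 luminescence, with 0 set by vehicle wells and 1 by blank wells, after 72 hours of two-drug dosing of cells plated in 1536-well plates.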

EB2 (Burkitt's Lymphoma) = tested on: EB2 (Burkitt's Lymphoma)
In short: as §1

IM-9 (Non-Cancerous) = tested on: IM-9 (Non-Cancerous)
In short: as §1

[2] = tested on: JHH-2 (Hepatocellular Carcinoma)
In short: as §1

[3] = tested on: LU-165 (Small Cell Lung Carcinoma)
In short: as §1

[4] = tested on: NCI-H441 (Lung Adenocarcinoma)
In short: as §1

PEO1 (Ovarian Carcinoma) = tested on: PEO1 (Ovarian Carcinoma)
In short: as §1

KP-N-YN (Neuroblastoma) = tested on: KP-N-YN (Neuroblastoma)
In short: as §1

[5] = tested on: DU-4475 (Breast Carcinoma)
In short: as §1

Row | SMILES | combination Emax [1] | combination Emax (EB2 (Burkitt's Lymphoma)) | combination Emax (IM-9 (Non-Cancerous)) | combination Emax [2] | combination Emax [3] | combination Emax [4] | combination Emax (PEO1 (Ovarian Carcinoma)) | combination Emax (KP-N-YN (Neuroblastoma)) | combination Emax [5]
1 | C=CCn1c(=O)c2cnc(Nc3ccc(N4CCN(C)CC4)cc3)nc2n1-c1cccc(C(C)(C)O)n1 [AZD1775] + CCc1c2c(nc3ccc(O)cc13)-c1cc3c(c(=O)n1C2)COC(=O)[C@]3(O)CC [SN-38] (first compound max 1 µM, partner max 0.3 µM) | 0.732 | 0.941 | 1 | 0.76 | 0.588 | 0.685 | 0.768 |  | 
2 | C=CCn1c(=O)c2cnc(Nc3ccc(N4CCN(C)CC4)cc3)nc2n1-c1cccc(C(C)(C)O)n1 [AZD1775] + Nc1ccn([C@@H]2O[C@H](CO)[C@@H](O)C2(F)F)c(=O)n1 [Gemcitabine] (first compound max 1 µM, partner max 0.3 µM) | 0.744 | 0.942 | 1 | 0.735 | 0.508 | 0.55 | 0.65 |  | 
3 | CN(CCO)CC[C@H](CSc1ccccc1)Nc1ccc(S(=O)(=O)NC(=O)c2ccc(N3CCC([C@@H](O)c4ccccc4-c4ccc(Cl)cc4)CC3)cc2)cc1S(=O)(=O)C(F)(F)F [AZD4320] + CS(=O)(=O)CCNCc1ccc(-c2ccc3ncnc(Nc4ccc(OCc5cccc(F)c5)c(Cl)c4)c3c2)o1 [Lapatinib] (first compound max 1 µM, 7x7, partner max 10 µM) | 0.335 | 0.293 | 0.974 | 0.778 | 0.943 | 0.479 | 0.829 |  | 
4 | Cc1c2c(nn1C)CSCc1cc(n(C)n1)CSc1cc(c3ccccc3c1)OCCCc1c(C(=O)O)n(C)c3c-2c(Cl)ccc13 [AZD5991] + CC(=O)O[C@H]1C(=O)[C@@]2(C)[C@H]([C@H](OC(=O)c3ccccc3)[C@]3(O)C[C@H](OC(=O)[C@H](O)[C@@H](NC(=O)c4ccccc4)c4ccccc4)C(C)=C1C3(C)C)[C@]1(OC(C)=O)CO[C@@H]1C[C@@H]2O [Paclitaxel] (first compound max 1 µM, 7x7, partner max 3 µM) | 0.912 | 0.666 | 1 | 0.783 | 0.36 | 0.401 | 0.762 | 0.608 | 
5 | Cc1c2c(nn1C)CSCc1cc(n(C)n1)CSc1cc(c3ccccc3c1)OCCCc1c(C(=O)O)n(C)c3c-2c(Cl)ccc13 [AZD5991] + CS(=O)(=O)CCNCc1ccc(-c2ccc3ncnc(Nc4ccc(OCc5cccc(F)c5)c(Cl)c4)c3c2)o1 [Lapatinib] (first compound max 1 µM, 7x7, partner max 10 µM) | 0.55 | 0.283 | 0.93 | 0.446 | 0.225 | 0.229 | 0.442 | 0.374 | 
6 | Cc1c2c(nn1C)CSCc1cc(n(C)n1)CSc1cc(c3ccccc3c1)OCCCc1c(C(=O)O)n(C)c3c-2c(Cl)ccc13 [AZD5991] + Nc1ccn([C@@H]2O[C@H](CO)[C@@H](O)C2(F)F)c(=O)n1 [Gemcitabine] (first compound max 1 µM, 7x7, partner max 0.3 µM) | 0.886 | 0.923 | 1 | 0.483 | 0.423 | 0.519 | 0.544 |  | 
7 | C[C@@H]1COCCN1c1cc(C2([S@](C)(=N)=O)CC2)nc(-c2ccnc3[nH]ccc23)n1 [AZD6738] + C1CC(C1)(C(=O)[O-])C(=O)[O-].N.N.[Pt+2] [Carboplatin] (first compound max 10 µM, 7x7, partner max 10 µM) | 0.553 | 0.76 | 0.966 | 0.507 | 0.41 | 0.394 | 0.675 |  | 
8 | C[C@@H]1COCCN1c1cc(C2([S@](C)(=N)=O)CC2)nc(-c2ccnc3[nH]ccc23)n1 [AZD6738] + Nc1ccn([C@@H]2O[C@H](CO)[C@@H](O)C2(F)F)c(=O)n1 [Gemcitabine] (first compound max 10 µM, 7x7, partner max 0.3 µM) | 0.754 | 0.942 | 1 | 0.716 | 0.551 | 0.568 | 0.696 |  | 
9 | C[C@@H](Nc1cc(F)cc(F)c1)c1cc(C(=O)N(C)C)cc2c(=O)cc(N3CCOCC3)oc12 [AZD8186] + C1CN(CCC1(C(=O)N[C@@H](CCO)C2=CC=C(C=C2)Cl)N)C3=NC=NC4=C3C=CN4 [AZD5363] (first compound max 10 µM, 7x7, partner max 10 µM) | 0.546 | 0.552 | 0.57 | 0.716 | 0.375 | 0.28 | 0.351 | 0.257 | 
10 | C[C@@H](Nc1cc(F)cc(F)c1)c1cc(C(=O)N(C)C)cc2c(=O)cc(N3CCOCC3)oc12 [AZD8186] + CC(=O)c1c(C)c2cnc(Nc3ccc(N4CCNCC4)cn3)nc2n(C2CCCC2)c1=O [Palbociclib] (first compound max 10 µM, 7x7, partner max 10 µM) | 0.563 | 0.582 | 0.682 | 0.693 | 0.31 | 0.447 | 0.454 | 0.433 | 
11 | C[C@@H](Oc1cc(-c2cnn(C3CCNCC3)c2)cnc1N)c1c(Cl)ccc(F)c1Cl [Crizotinib] + CC1=C(C(=CC=C1)Cl)NC(=O)C2=CN=C(S2)NC3=CC(=NC(=N3)C)N4CCN(CC4)CCO [Dasatinib] (first compound max 10 µM, 7x7, partner max 2 µM) | 0.468 | 0.591 | 0.974 | 0.883 | 0.469 | 0.63 | 0.532 | 0.71 | 
12 | C[C@@H](Oc1cc(-c2cnn(C3CCNCC3)c2)cnc1N)c1c(Cl)ccc(F)c1Cl [Crizotinib] + Cn1cnc2c(F)c(Nc3ccc(Br)cc3Cl)c(C(=O)NOCCO)cc21 [Selumetinib] (first compound max 10 µM, 7x7, partner max 10 µM) | 0.59 | 0.566 | 1 | 0.598 | 0.279 | 0.415 | 0.297 | 0.607 | 
13 | CS(=O)(=O)CCNCc1ccc(-c2ccc3ncnc(Nc4ccc(OCc5cccc(F)c5)c(Cl)c4)c3c2)o1 [Lapatinib] + Cn1cnc2c(F)c(Nc3ccc(Br)cc3Cl)c(C(=O)NOCCO)cc21 [Selumetinib] (first compound max 10 µM, 7x7, partner max 10 µM) | 0.464 | 0.324 | 0.994 | 0.565 | 0.24 | 0.32 | 0.52 | 0.409 | 
14 | CS(=O)(=O)CCNCc1ccc(-c2ccc3ncnc(Nc4ccc(OCc5cccc(F)c5)c(Cl)c4)c3c2)o1 [Lapatinib] + NC1(c2ccc(-c3nc4ccn5c(=O)[nH]nc5c4cc3-c3ccccc3)cc2)CCC1 [MK-2206] (first compound max 10 µM, 7x7, partner max 10 µM) | 0.835 | 0.834 | 0.964 | 0.9 | 0.453 | 0.473 | 0.348 | 0.922 | 0.983
15 | O=C(c1cc(Cc2n[nH]c(=O)c3ccccc23)ccc1F)N1CCN(C(=O)C2CC2)CC1 [Olaparib] + CC1(C)CCC(CN2CCN(c3ccc(C(=O)NS(=O)(=O)c4ccc(NCC5CCOCC5)c([N+](=O)[O-])c4)c(Oc4cnc5[nH]ccc5c4)c3)CC2)=C(c2ccc(Cl)cc2)C1 [Venetoclax] (first compound max 10 µM, 7x7, partner max 1 µM) | 0.251 | 0.242 | 0.835 | 0.114 | 0.207 | 0.113 | 0.146 | 0.728 | 
16 | O=C(c1cc(Cc2n[nH]c(=O)c3ccccc23)ccc1F)N1CCN(C(=O)C2CC2)CC1 [Olaparib] + CN(CC[C@H](CSC1=CC=CC=C1)NC2=C(C=C(C=C2)S(=O)(=O)NC(=O)C3=CC=C(C=C3)N4CCC(CC4)[C@H](C5=CC=CC=C5C6=CC=C(C=C6)Cl)O)S(=O)(=O)C(F)(F)F)CCO [AZD4320] (first compound max 10 µM, 7x7, partner max 1 µM) | 0.183 | 0.13 | 0.924 | 0.171 | 0.473 | 0.213 | 0.242 | 0.968 | 
17 | O=C(c1cc(Cc2n[nH]c(=O)c3ccccc23)ccc1F)N1CCN(C(=O)C2CC2)CC1 [Olaparib] + COc1nnc2ccc(N3CCC(c4ccc(OCCN5CCN(C)C(=O)[C@H]5C)cc4)CC3)nn12 [AZD5153] (first compound max 10 µM, 7x7, partner max 1 µM) | 0.546 | 0.484 | 0.752 | 0.314 | 0.373 | 0.353 | 0.361 | 0.521 | 
18 | O=C(c1cc(Cc2n[nH]c(=O)c3ccccc23)ccc1F)N1CCN(C(=O)C2CC2)CC1 [Olaparib] + Cc1c2c(nn1C)CSCc1cc(n(C)n1)CSc1cc(c3ccccc3c1)OCCCc1c(C(=O)O)n(C)c3c-2c(Cl)ccc13 [AZD5991] (first compound max 10 µM, 7x7, partner max 1 µM) | 0.519 | 0.192 | 0.903 | 0.163 | 0.141 | 0.0979 | 0.112 | 0.335 | 
19 | Cc1nc(-c2cn3c(n2)-c2ccc(-c4cnn(C(C)(C)C(N)=O)c4)cc2OCC3)n(C(C)C)n1 [Taselisib] + O=C(Nc1ccc2[nH]nc(-c3ccncc3)c2c1)[C@@H]1CCN(CC(=O)N2CCN(c3ccc(-c4ncccn4)cc3)CC2)C1 [SCH772984] (first compound max 10 µM, 7x7, partner max 5 µM) | 0.702 | 0.563 | 0.851 | 0.971 | 0.475 | 0.562 | 0.818 | 0.553 | 
20 | CC1(C)CCC(CN2CCN(c3ccc(C(=O)NS(=O)(=O)c4ccc(NCC5CCOCC5)c([N+](=O)[O-])c4)c(Oc4cnc5[nH]ccc5c4)c3)CC2)=C(c2ccc(Cl)cc2)C1 [Venetoclax] + CS(=O)(=O)CCNCc1ccc(-c2ccc3ncnc(Nc4ccc(OCc5cccc(F)c5)c(Cl)c4)c3c2)o1 [Lapatinib] (first compound max 1 µM, 7x7, partner max 10 µM) | 0.266 | 0.348 | 0.958 | 0.395 | 0.305 | 0.165 | 0.287 | 0.57 | 
